Counter-ions that a name gives are not always drawn.
target: T1, Human D1 Receptor (Homo sapiens, UniProt P21728); assay: Human D1 Receptor Binding Assay ([3H]-SCH23390 competition binding); details: over-expressing LTK human cell lines; 0.5 nM [3H]-SCH23390; 30 min at 37° C.; footnote a = geometric mean of ≧5 determinations, footnote b = single determination; read-out: Human D1 Receptor Binding, Ki (nM); Geometric mean of 2-4 determinations (unless otherwise indicated)
T1 construct: expressed in transfected cells; host or cells: LTK cell line over-expressing the D1 receptor
Method: The affinity of the compounds described herein was determined by competition binding assays similar to those described in Ryman-Rasmussen et al., “Differential activation of adenylate cyclase and receptor internalization by novel dopamine D1 receptor agonists”, Molecular Pharmacology 68(4):1039-1048 (2005).
D1 binding assays were performed using over-expressing LTK human cell lines. […] These ligand and tissue concentrations were used in time course studies to determine linearity and equilibrium conditions for binding. Binding was at equilibrium with the specified amount of tissue in 30 minutes at 37° C. […] The pellet was resuspended in assay buffer [50 mM Tris (pH 7.4@RT) containing 4 mM MgSO4 and 0.5 mM EDTA]. […] Non-specific binding was determined by radioligand binding in the presence of a saturating concentration of (+)-Butaclamol (10 μM), a D1 antagonist. After a 30 minute incubation period at 37° C., assay samples were rapidly filtered through Unifilter-96 GF/B PEI-coated filter plates and rinsed with 50 mM Tris buffer (pH 7.4 at 4° C.). […] The IC50 value (concentration at which 50% inhibition of specific binding occurs) was calculated by linear regression of the concentration-response data in Microsoft Excel. Ki values were calculated according to the Cheng-Prusoff equation: […]

T1 sequence (P21728 whole entry): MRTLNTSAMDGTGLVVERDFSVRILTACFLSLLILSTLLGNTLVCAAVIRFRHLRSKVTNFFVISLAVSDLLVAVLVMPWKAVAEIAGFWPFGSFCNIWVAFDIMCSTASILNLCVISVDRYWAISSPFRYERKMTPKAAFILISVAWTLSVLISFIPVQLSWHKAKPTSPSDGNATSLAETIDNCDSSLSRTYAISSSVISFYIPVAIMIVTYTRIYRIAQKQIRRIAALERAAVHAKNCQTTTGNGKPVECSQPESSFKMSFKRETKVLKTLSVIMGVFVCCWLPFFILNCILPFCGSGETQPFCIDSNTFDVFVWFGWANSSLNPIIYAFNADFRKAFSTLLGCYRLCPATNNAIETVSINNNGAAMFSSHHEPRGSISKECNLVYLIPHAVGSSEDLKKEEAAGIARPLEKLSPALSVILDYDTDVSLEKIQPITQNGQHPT

| Compound | Ki [nM] |
| --- | --- |
| Cc1cc(Oc2nccc3ncsc23)ccc1-c1c(C)ncc(=O)n1C (single isomer, unassigned) [Example 30, (+)-1,5-dimethyl-6-[2-methyl-4-([1,3]thiazolo[5,4-c]pyridin-4-yloxy)phenyl]pyrazin-2(1H)-one] | 116 |
| Cc1cc(Oc2nccc3ncsc23)ccc1-c1c(C)cnnc1C (single isomer, unassigned) [Example 65, (−)-4-[4-(3,5-dimethylpyridazin-4-yl)-3-methylphenoxy][1,3]thiazolo[5,4-c]pyridine] | 223 |
| Cc1cc(Oc2nccc3ncsc23)ccc1-c1c(C)ncc2nccn12 (single isomer, unassigned; ent-1) [Example 61, 4-[3-methyl-4-(6-methylimidazo[1,2-a]pyrazin-5-yl)phenoxy][1,3]thiazolo[5,4-c]pyridine, ENT-1] | 151 |
| Cc1cc(Oc2nccc3ncsc23)ccc1-c1c(C)ncc2nccn12 (single isomer, unassigned; ent-2) [Example 62, 4-[3-methyl-4-(6-methylimidazo[1,2-a]pyrazin-5-yl)phenoxy][1,3]thiazolo[5,4-c]pyridine, ENT-2] | 239 |
| Cc1cc(Oc2ncnc3ccsc23)ccc1-c1cn[nH]c(=O)c1C [Example 4, 4-methyl-5-[2-methyl-4-(thieno[3,2-d]pyrimidin-4-yloxy)phenyl]pyridazin-3(2H)-one] | 68.4 |
| Cc1ncnc(C)c1-c1ccc(Oc2nccc3ncsc23)cc1C#N [Example 7, 2-(4,6-dimethylpyrimidin-5-yl)-5-([1,3]thiazolo[5,4-c]pyridin-4-yloxy)benzonitrile] | 184 |
| Cc1cc(Oc2nccc3cc[nH]c23)ccc1-c1c(C)ncnc1C [Example 12, 7-[4-(4,6-dimethylpyrimidin-5-yl)-3-methylphenoxy]-1H-pyrrolo[2,3-c]pyridine] | 403 |
| Cc1cc(Oc2nccc3ncsc23)ccc1-c1c(C)ncc(=O)n1C [Example 16, 1,5-dimethyl-6-[2-methyl-4-([1,3]thiazolo[5,4-c]pyridin-4-yloxy)phenyl]pyrazin-2(1H)-one] | 82.8 |
| Cc1ncnc(C)c1-c1ccc(Oc2ncnc3ccsc23)c(F)c1 [Example 19, 4-[4-(4,6-dimethylpyrimidin-5-yl)-2-fluorophenoxy]thieno[3,2-d]pyrimidine] | 117 |
| Cc1ncnc(C)c1-c1ccc(Oc2ncnc3ccsc23)c(F)c1C [Example 20, 4-[4-(4,6-dimethylpyrimidin-5-yl)-2-fluoro-3-methylphenoxy]thieno[3,2-d]pyrimidine] | 121 |
| Cc1ncnc(C)c1-c1ccc(Oc2ncnc3ccsc23)cc1 [Example 22, 4-[4-(4,6-dimethylpyrimidin-5-yl)phenoxy]thieno[3,2-d]pyrimidine] | 146 |
| COc1cc(Oc2ncnc3ccsc23)ccc1-c1c(C)ncnc1C [Example 23, 4-[4-(4,6-dimethylpyrimidin-5-yl)-3-methoxyphenoxy]thieno[3,2-d]pyrimidine] | 178 |
| Cc1ncnc(C)c1-c1ccc(Oc2ncnc3ccsc23)cc1F [Example 24, 4-[4-(4,6-dimethylpyrimidin-5-yl)-3-fluorophenoxy]thieno[3,2-d]pyrimidine, trifluoroacetate salt] | 531 |
| Cc1cc(Oc2nccc3cn[nH]c23)ccc1-c1c(C)n[nH]c(=O)c1C [Example 25, 4,6-dimethyl-5-[2-methyl-4-(1H-pyrazolo[3,4-c]pyridin-7-yloxy)phenyl]pyridazin-3(2H)-one] | 120 |
| Cc1cc(Oc2nccc3ncsc23)ccc1-c1cn[nH]c(=O)c1C [Example 27, 4-methyl-5-[2-methyl-4-([1,3]thiazolo[5,4-c]pyridin-4-yloxy)phenyl]pyridazin-3(2H)-one] | 186 |
| Cc1ncnc(C)c1-c1ccc(Oc2nccc3ncsc23)cc1Cl [Example 31, 4-[3-chloro-4-(4,6-dimethylpyrimidin-5-yl)phenoxy][1,3]thiazolo[5,4-c]pyridine] | 71.9 |

Compounds with a lower Ki, results first:

| Ki [nM] | Compound |
| --- | --- |
| 62.4 | Cc1ncnc(C)c1-c1cc(F)c(Oc2ncnc3ccsc23)cc1F [Example 21, 4-[4-(4,6-dimethylpyrimidin-5-yl)-2,5-difluorophenoxy]thieno[3,2-d]pyrimidine] |
| 57.8 | Cc1cc(Oc2nccc3ccoc23)ccc1-c1c(C)ncnc1C [Example 11, 7-[4-(4,6-dimethylpyrimidin-5-yl)-3-methylphenoxy]furo[2,3-c]pyridine] |
| 57.2 | Cc1cc(Oc2nccc3ccoc23)ccc1-c1c(C)ncc2nccn12 [Example 9, 5-[4-(furo[2,3-c]pyridin-7-yloxy)-2-methylphenyl]-6-methylimidazo[1,2-a]pyrazine] |
| 44.9 | COc1cc(Oc2nccc3ccsc23)ccc1-c1nccnc1C [Example 10, 7-[3-methoxy-4-(3-methylpyrazin-2-yl)phenoxy]thieno[2,3-c]pyridine] |
| 40.6 | Cc1cc(Oc2nccc3ncsc23)ccc1-c1c(C)ncc(=O)n1C (single isomer, unassigned) [Example 29, (−)-1,5-dimethyl-6-[2-methyl-4-([1,3]thiazolo[5,4-c]pyridin-4-yloxy)phenyl]pyrazin-2(1H)-one] |
| 34.5 | Cc1ncnc(C#N)c1-c1ccc(Oc2nccc3ccsc23)cc1F [Example 13, 5-[2-fluoro-4-(thieno[2,3-c]pyridin-7-yloxy)phenyl]-6-methylpyrimidine-4-carbonitrile] |
| 34.5 | Cc1cc(Oc2ncnc3ccsc23)ccc1-c1c(C)ncc(=O)n1C [Example 15, 1,5-dimethyl-6-[2-methyl-4-(thieno[3,2-d]pyrimidin-4-yloxy)phenyl]pyrazin-2(1H)-one] |
| 34.5 | Cc1cc(Oc2ncnc3ccsc23)c(F)cc1-c1c(C)ncnc1C [Example 18, 4-[4-(4,6-dimethylpyrimidin-5-yl)-2-fluoro-5-methylphenoxy]thieno[3,2-d]pyrimidine] |
| 32.3 | Cc1cc(Oc2nccc3ncsc23)ccc1-c1c(C)cnnc1C (single isomer, unassigned) [Example 64, (+)-4-[4-(3,5-dimethylpyridazin-4-yl)-3-methylphenoxy][1,3]thiazolo[5,4-c]pyridine] |
| 25.4 | Cc1ncnc(C)c1-c1ccc(Oc2ncnc3ccsc23)cc1Cl [Example 17, 4-[3-chloro-4-(4,6-dimethylpyrimidin-5-yl)phenoxy]thieno[3,2-d]pyrimidine] |
| 25 | Cc1n[nH]c(=O)c(C)c1-c1ccc(Oc2nccc3ncsc23)cc1 [Example 28, 4,6-dimethyl-5-[4-([1,3]thiazolo[5,4-c]pyridin-4-yloxy)phenyl]pyridazin-3(2H)-one] |
| 15.1 | Cc1cc(Oc2nccc3ccsc23)ccc1-c1c(C)ncnc1C#N (single isomer, unassigned; ent-2) [Example 46, 6-methyl-5-[2-methyl-4-(thieno[2,3-c]pyridin-7-yloxy)phenyl]pyrimidine-4-carbonitrile, ENT-2] |
| 14.3 | Cc1cc(Oc2nccc3ccsc23)ccc1-c1c(C)ncnc1C#N (single isomer, unassigned; ent-1) [Example 45, 6-methyl-5-[2-methyl-4-(thieno[2,3-c]pyridin-7-yloxy)phenyl]pyrimidine-4-carbonitrile, ENT-1] |
| 13.1 | Cc1cc(Oc2nccc3ccsc23)ccc1-n1c(C)nc2cnccc21 [Example 8, 2-methyl-1-[2-methyl-4-(thieno[2,3-c]pyridin-7-yloxy)phenyl]-1H-imidazo[4,5-c]pyridine] |
| 12.2 | Cc1cc(Oc2nccc3ncsc23)ccc1-c1c(C)n[nH]c(=O)c1C [Example 26, 4,6-dimethyl-5-[2-methyl-4-([1,3]thiazolo[5,4-c]pyridin-4-yloxy)phenyl]pyridazin-3(2H)-one] |
| 10.9 | Cc1cc(Oc2nccc3cnsc23)ccc1-c1c(C)n[nH]c(=O)c1C [Example 3, 4,6-dimethyl-5-[2-methyl-4-([1,2]thiazolo[5,4-c]pyridin-7-yloxy)phenyl]pyridazin-3(2H)-one] |
| 5.8 | Cc1cc(Oc2nccc3ccsc23)ccc1-c1c(C)ncnc1C [Example 6, 7-[4-(4,6-dimethylpyrimidin-5-yl)-3-methylphenoxy]thieno[2,3-c]pyridine] |
| 4.1 | Cc1cc(Oc2ncnc3ccsc23)ccc1-c1c(C)c(=O)[nH]c(=O)n1C (single isomer, unassigned) [Example 1, (+)-1,5-dimethyl-6-[2-methyl-4-(thieno[3,2-d]pyrimidin-4-yloxy)phenyl]pyrimidine-2,4(1H,3H)-dione] |
| 3.3 | Cc1cc(Oc2nccc3ccsc23)ccc1-c1c(C)cnnc1C [Example 14, 7-[4-(3,5-dimethylpyridazin-4-yl)-3-methylphenoxy]thieno[2,3-c]pyridine] |
| 1.8 | Cc1cc(Oc2ncnc3ccsc23)ccc1-c1c(C)c(=O)[nH]c(=O)n1C (single isomer, unassigned) [Example 2, (−)-1,5-dimethyl-6-[2-methyl-4-(thieno[3,2-d]pyrimidin-4-yloxy)phenyl]pyrimidine-2,4(1H,3H)-dione] |
| 1.6 | Cc1cc(Oc2nccc3ccsc23)ccc1-c1c(C)ncc(=O)n1C [Example 5, 1,5-dimethyl-6-[2-methyl-4-(thieno[2,3-c]pyridin-7-yloxy)phenyl]pyrazin-2(1H)-one] |

Source: US9688698B2, “Heteroaromatic compounds and their use as dopamine D1 ligands” (PFIZER INC., priority 2014, dated 2017)
